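Following 48 hours of exposure in 96-well plates, responses at five concentrations were used to interpolate endpoints linearly. TGI marks complete inhibition of growth.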
How the values were obtained:
Test in all cases: inhibition of tumour cell growth, NCI panel, 48 h
[1] = tested on: MALME-3M melanoma
[2] = tested on: NCI-H522 lung
[3] = tested on: SNB-75 CNS
[4] = tested on: LOX IMVI melanoma
[5] = tested on: NCI-H226 lung
[6] = tested on: NCI-H23 lung
[7] = tested on: DU-145 prostate
[8] = tested on: OVCAR-8 ovarian
[9] = tested on: UACC-257 melanoma
[10] = tested on: BT-549 breast
[11] = tested on: MCF7 breast
[12] = tested on: SR leukemia
[13] = tested on: SF-295 CNS
[14] = tested on: M14 melanoma
[15] = tested on: UO-31 renal
[16] = tested on: OVCAR-4 ovarian
[17] = tested on: HCC-2998 colon
[18] = tested on: CCRF-CEM leukemia
[19] = tested on: HL-60(TB) leukemia

Structure (SMILES) | TGI [1] [µM] | TGI [2] [µM] | TGI [3] [µM] | TGI [4] [µM] | TGI [5] [µM] | TGI [6] [µM] | TGI [7] [µM] | TGI [8] [µM] | TGI [9] [µM] | TGI [10] [µM] | TGI [11] [µM] | TGI [12] [µM] | TGI [13] [µM] | TGI [14] [µM] | TGI [15] [µM] | TGI [16] [µM] | TGI [17] [µM] | TGI [18] [µM] | TGI [19] [µM]
O=C(O)C1CCCN1Cc1ccc2c(c1)OCO2 (stereo not given) | > 100 | > 100 | > 100 | > 100 | > 100 | > 100 | > 100 | > 100 | > 100 | > 100 | > 100 | > 100 | > 100 | > 100 | > 100 | > 100 | – | – | –
O=C1C=Cc2c(I)sc(I)c21 | 33.4 | 6.97 | 87.4 | 25.2 | > 100 | 36.7 | > 100 | 42.3 | 53.5 | 41.5 | 52.1 | 27 | > 100 | 75.8 | 32.5 | 52.6 | 35.3 | 18.3 | –
CCCC[Si](CCCC)(CCCC)O[C@@H](/C=C/C(=O)OCC)[C@H](Cc1ccccc1)O[Si](CCCC)(CCCC)CCCC | > 100 | > 100 | > 100 | > 100 | > 100 | > 100 | > 100 | > 100 | > 100 | > 100 | > 100 | > 100 | > 100 | – | > 100 | > 100 | > 100 | > 100 | –
O=C(NO)c1ccc(OCc2ccccc2)cc1 | – | 51.5 | > 100 | 55.8 | > 100 | 28.1 | 68.9 | 28.7 | > 100 | > 100 | > 100 | 90.9 | > 100 | > 100 | 72.8 | 75 | > 100 | > 100 | > 100
CC[C@@H]1C[C@@H](O)[C@@H]2[C@H](O)[C@H](O)CN2C1 | > 100 | > 100 | > 100 | > 100 | > 100 | > 100 | > 100 | > 100 | > 100 | > 100 | > 100 | – | > 100 | > 100 | > 100 | > 100 | > 100 | > 100 | > 100
CCC(C)(C)c1ccc(Oc2cccc(C(=O)O)c2)cc1 | > 100 | 89.9 | > 100 | > 100 | > 100 | > 100 | > 100 | > 100 | > 100 | > 100 | > 100 | – | > 100 | > 100 | > 100 | > 100 | > 100 | 68 | > 100
Cc1ccc2cccc(OC(=O)c3cc4c(cc3Cl)Sc3nccn3S4(=O)=O)c2n1 | 47.4 | 38 | 39.6 | 19.8 | > 75.7 | 63.6 | 18.1 | 28.8 | 25.4 | > 78.1 | 18.4 | 16.7 | 29.7 | 25.7 | 30.6 | 25.1 | 13.1 | 17 | –
COc1ccc(C2C3=C(CCCC3=O)N(c3ccccc3)C3=C2C(=O)CCC3)cc1 | – | – | > 100 | > 100 | > 100 | > 100 | – | – | – | > 100 | > 100 | > 100 | – | > 100 | > 100 | > 100 | – | > 100 | > 100
O=C1CCC2(c3ccc(F)cc3)Nc3ncncc3N12 (stereo not given) | > 10 | > 10 | > 10 | > 10 | > 10 | > 10 | > 10 | > 10 | > 10 | > 10 | > 10 | > 10 | > 10 | > 10 | > 10 | > 10 | > 10 | > 10 | –
CC1(C)OC([C@H](O)CO)C([C@H]2NCCS2)O1 (stereo not given in full) | > 100 | > 100 | > 100 | > 100 | > 100 | > 100 | > 100 | > 100 | > 100 | > 100 | – | > 100 | > 100 | > 100 | > 100 | > 100 | > 100 | > 100 | > 100
N=c1c2ccccc2nc2oc3ccc(Cl)cc3n12 | 40.1 | 53.1 | 23.6 | 26.8 | 34.6 | 34.2 | – | 69.1 | > 100 | > 100 | – | > 100 | 35.6 | 56.9 | 32.9 | 13.1 | > 100 | > 100 | –
Cc1c(C)c2ccc(O)cc2[nH]c1=O | – | – | > 100 | > 100 | > 100 | > 100 | > 100 | > 100 | > 100 | > 100 | > 100 | > 100 | > 100 | > 100 | > 100 | > 100 | > 100 | > 100 | –
C=C1C(=O)O[C@H]2[C@H]3O[C@@H](C[C@@H]12)[C@](C)(O)CCCC(C)=CCC[C@H]3C | – | 17.3 | 22.3 | 48.2 | 36.9 | 35.3 | 39.6 | 21 | 22.7 | 3.07 | 29.8 | > 100 | 31.7 | – | 23.5 | 39 | 23.6 | 3.24 | –
Cc1c(C)c(C)c(CSC(=N)N)c(C)c1C | 32.9 | 33 | 29 | 79.2 | 27.8 | 33.4 | 31.6 | 58.2 | 27.3 | 30.7 | 30.9 | – | 21.7 | 22.7 | 20.2 | 33.2 | 27.8 | 35.4 | 27.6
COc1ccc(C2Oc3c(cccc3OC)C=C2[N+](=O)[O-])cc1 (stereo not given) | 10 | 3.02 | – | 2.81 | – | 12.4 | 16.4 | 11.2 | 19 | 4.32 | 10.8 | > 100 | 16.3 | 2.15 | 3.14 | 10.1 | – | > 100 | > 100
O=C1/C(=C/c2cccc3ccccc23)Cc2ccccc21 | – | – | > 100 | > 100 | 49.6 | 65.8 | – | > 100 | – | 29.9 | 38.9 | > 100 | – | > 100 | > 100 | 53 | > 100 | > 100 | > 100
COc1ccc(N=C2C(=Nc3ccc(OC)cc3)N(c3ccccc3[N+](=O)[O-])C(=S)N2c2ccc(OC)cc2)cc1 | – | > 100 | > 100 | – | > 100 | > 100 | > 100 | > 100 | – | > 100 | > 100 | > 100 | > 100 | > 100 | > 100 | – | > 100 | – | –
CCNC(=O)Cc1nc2c(=O)[nH]cnc2n1C1OC(CO)C(O)C1O (stereo not given) | > 100 | > 100 | > 100 | > 100 | > 100 | > 100 | > 100 | > 100 | > 100 | > 100 | > 100 | – | > 100 | > 100 | > 100 | > 100 | > 100 | > 100 | > 100
CN(C)N1C(=O)CC2(CCN(CCCC(=O)c3ccc(F)cc3)CC2)C1=O | > 100 | > 100 | > 100 | > 100 | > 100 | > 100 | > 100 | > 100 | > 100 | > 100 | > 100 | > 100 | > 100 | > 100 | > 100 | – | – | – | > 100
Cc1ccc(C(=O)Nc2ccc(CP(=O)(O)O)cc2)cc1NC(=O)Nc1cc(C(=O)Nc2ccc(CP(=O)(O)O)cc2)ccc1C | > 100 | > 100 | > 100 | > 100 | > 100 | > 100 | > 100 | > 100 | > 100 | > 100 | > 100 | – | > 100 | > 100 | > 100 | > 100 | > 100 | > 100 | > 100
CC(C)=CCC/C(C)=C/CC/C(C)=C/CC/C(C=O)=C/CC/C(C)=C\CC/C(C)=C/CC/C(C)=C/CC/C(C)=C/CC1=CC(=O)C=CC1=O | 66.3 | 32.3 | 96.1 | > 100 | – | > 100 | > 100 | > 100 | > 100 | > 100 | > 100 | > 100 | > 100 | > 100 | > 100 | > 100 | > 100 | > 100 | –
O=C1c2cccnc2-c2nccc3ccnc1c23 | 3.28 | 0.666 | 5.92 | 2.22 | 2.98 | 2.11 | 2.65 | 2.17 | 2.27 | 2.78 | 1.7 | – | 2.78 | 2.43 | 3.16 | 5.46 | 3.41 | 0.156 | 0.185
O=C1C(c2c(O)[nH]c3ccc(S(=O)(=O)N(CCO)CCO)cc23)=Nc2ccccc21 | > 100 | > 100 | 8.49 | > 100 | > 100 | > 100 | 72.3 | > 100 | > 100 | > 100 | > 100 | > 100 | > 100 | > 100 | > 100 | > 100 | > 100 | > 100 | –
COc1ccc2nc(-c3ccc(O)cc3)cn2c1 | > 100 | > 100 | > 100 | > 100 | > 100 | > 100 | > 100 | > 100 | – | > 100 | > 100 | > 100 | > 100 | > 100 | > 100 | > 100 | – | > 100 | –
O=C(CN1CCCC1)Nc1ccc2sc3ccccc3c(=O)c2n1 | – | 36 | 60 | 37.3 | – | 99.1 | > 100 | 52.5 | – | 70 | > 100 | > 100 | 67.8 | 54.4 | 27.9 | > 100 | 39.8 | 48.2 | –
Clc1ccc(N=Cc2cc3cc(Br)ccc3nc2Cl)cc1 | > 50 | > 50 | > 50 | > 50 | > 50 | > 50 | > 50 | > 50 | > 50 | > 50 | – | 42.2 | – | > 50 | > 50 | 24.2 | > 50 | 32.5 | 46.4
CC[C@]12C=CCN3CCC4(c5cc(N=Nc6ccc([N+](=O)[O-])cc6)c(OC)cc5N(C)[C@H]4[C@@](O)(C(=O)OC)[C@@H]1OC(C)=O)[C@@H]32 (stereo not given in full) | 36.9 | – | 35.1 | 47.3 | 56.5 | 32.4 | > 100 | > 100 | 56.5 | > 100 | > 100 | 32 | 30.8 | 40.5 | 25.9 | > 100 | – | 26.6 | 28.1

Reference: PubChem BioAssay (NCI)
